From US6939863B2, “Prevention of atherosclerosis and restenosis” (priority 2002, dated 2005)

Columns and labels:
endothelial cells = details: summary table; cited from earlier work; note: key: '+' represents the ability; a '−' represents the inability of conversion from a non-contracile phenotype to a contractile phenotype in an in vitro condition; A '↓' represents decrease; a '?' represents no data is available
restenosis [1] = details: summary table; cited from earlier work
restenosis [2] = details: summary table; cited from earlier work; remark: listed apart in the source
restenosis [3] = details: summary table; cited from earlier work; remark: listed apart in the source
[4] = tested on: rat vascular smooth muscle cells; experiment: Vascular smooth muscle cell proliferation (cell number); format: cell-based; details: concentration-dependent; PTU 0.05-5 millimolar, methimazole 0.01-1 millimolar
Procedure: (§1) Rat vascular smooth muscle cells (VSMCs) (passages 5-10) were prepared from Sprague-Dawley rats and cultured in Dulbecco's modified Eagle's medium (DMEM) supplemented with 10% fetal bovine serum (FBS) as previously described (Kirschenlohr et al, in “Human Cell Culture Protocols”, New Jersey, Humana Press Inc, 1996, pp. 318-335). Human endothelial cells from umbilical veins were prepared as described (Morgan, in “Human Cell Culture Protocols”, New Jersey, Humana Press Inc, 1996, pp. 101-152)
(§2) Rat vascular smooth muscle cells and human endothelial cells were plated at a density of 10,000 cells per square centimeter in 24-well plates. After 24 hours, cells at 70-80% confluency were treated with propylthiouracil dissolved in 100% dimethylsulfoxide (DMSO) at final concentrations of from 0.05 millimolar to 15 millimolar, or with methimazole (Sigma, St. Louis, Mo.) dissolved in water at the concentrations of from 0.01 millimolar to 1 millimolar for 24-72 hours. Cell numbers were visually counted using a hemocytometer. For the thymidine incorporation study, cells were deprived of serum for 36 hours and labeled with [methyl-^3H]thymidine at […] per milliliter for 12-24 hours after synchronization. Thymidine incorporation was then measured (Newby and George, 1996, Curr. Opin. Cardiol., 11:547). Effects of propylthiouracil and methimazole on the number of vascular smooth muscle cells and human endothelial cells and thymidine incorporation by vascular smooth muscle cells were each expressed as a percentage of the number and thymidine incorporation of control cells maintained in medium containing 0.1% DMSO as vehicle.

[5] = tested on: rat vascular smooth muscle cells; experiment: [methyl-3H]thymidine incorporation into VSMCs; format: cell-based; details: concentration-dependent
Procedure: as §1, §2

[6] = summary table; cited from earlier work
collagen expression = details: summary table; cited from earlier work
smooth muscle cells = details: conversion from non-contractile to contractile phenotype in vitro; cited from earlier work
[7] = summary table; cited from earlier work; remark: listed apart in the source
Throughout, for Effect on animal models of restenosis, Pig: key: '+' represents the ability; a '−' represents the inability of conversion from a non-contracile phenotype to a contractile phenotype in an in vitro condition; A '↓' represents decrease; a '?' represents no data is available.
Throughout, for Effect on animal models of restenosis, Rat: key: '+' represents the ability; a '−' represents the inability of conversion from a non-contracile phenotype to a contractile phenotype in an in vitro condition; A '↓' represents decrease; a '?' represents no data is available.
Throughout, for Effect on restenosis, Human: key: '+' represents the ability; a '−' represents the inability of conversion from a non-contracile phenotype to a contractile phenotype in an in vitro condition; A '↓' represents decrease; a '?' represents no data is available.

| Compound | Endothelial cellular function (endothelial cells) | Effect on animal models of restenosis, Pig (restenosis [1]) | Effect on restenosis, Human (restenosis [2]) | Effect on animal models of restenosis, Rat (restenosis [3]) | Inhibition of growth/proliferation of VSMCs [4] | Inhibition of thymidine incorporation into VSMCs [5] | Anti-coagulation [6] | Collagen expression (collagen expression) | Phenotype change (smooth muscle cells) | Anti-inflammation [7] |
| --- | --- | --- | --- | --- | --- | --- | --- | --- | --- | --- |
| CC(=O)O[C@H]1C(=O)[C@@]2(C)[C@H]([C@H](OC(=O)c3ccccc3)[C@]3(O)C[C@H](OC(=O)[C@H](O)[C@@H](NC(=O)c4ccccc4)c4ccccc4)C(C)=C1C3(C)C)[C@]1(OC(C)=O)CO[C@@H]1C[C@@H]2O [Paclitaxel] | − | + | + | + |  |  |  |  |  |  |
| Cn1cc[nH]c1=S [methimazole] |  |  |  |  | but not methimazole (MMI), significantly inhibited | but not methimazole (MMI), significantly inhibited |  |  |  |  |
| CC1=C(/C=C/C(C)=C/C=C/C(C)=C/C(=O)O)C(C)(C)CCC1 [All-trans retinoic acid] | + |  |  | + |  |  | − | ↑ | + | − |
| Heparin | − | + | − | + |  |  | + |  | − | − |
